Measured values reported in paper PMC3654553, “A PPARγ ligand present in Actinidia fruit (Actinidia chrysantha) is identified as dilinolenoyl galactosyl glycerol” (Bioscience Reports, 2013).

Key:
[1] = biological target: T1, PPARγ (peroxisome-proliferator-activated receptor γ) (Homo sapiens, UniProt P37231)
T1 construct: gene PPARG
T1 sequence (P37231 231-505 limits assumed): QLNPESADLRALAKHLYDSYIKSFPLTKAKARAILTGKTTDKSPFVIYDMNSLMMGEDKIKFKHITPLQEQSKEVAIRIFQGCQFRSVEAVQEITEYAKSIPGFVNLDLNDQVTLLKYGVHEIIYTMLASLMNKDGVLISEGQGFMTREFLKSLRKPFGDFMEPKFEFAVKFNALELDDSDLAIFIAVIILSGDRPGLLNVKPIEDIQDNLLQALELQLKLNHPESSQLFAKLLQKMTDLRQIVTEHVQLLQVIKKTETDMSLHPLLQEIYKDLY

[2] = biological target: T1, PPARγ (peroxisome-proliferator-activated receptor γ); experiment: competitive fluorescence polarization of HPLC fraction […], dilution series and time course; format: binding
[3] = biological target: T1, PPARγ (peroxisome-proliferator-activated receptor γ); experiment: competitive fluorescence polarization (PolarScreen PPARγ green), time course; intact protein ESI-MS shows no covalent adduct; format: binding

CC/C=C\C/C=C\C/C=C\CCCCCCCC(=O)O [compound 5, α-linolenic acid]
competitive fluorescence polarization of HPLC fraction 5, dilution series [1]: α-linolenic acid and linoleic acid bind to PPARγ immediately under the assay conditions used

CCCCC/C=C\C/C=C\CCCCCCCC(=O)O [compound 6, linoleic acid]
competitive fluorescence polarization of HPLC fraction 6, dilution series and ti [2]: α-linolenic acid and linoleic acid bind to PPARγ immediately under the assay conditions used

CC/C=C\C/C=C\C/C=C\CCCCCCCC(=O)OC[C@H](CO[C@@H]1O[C@H](CO)[C@H](O)[C@H](O)[C@H]1O)OC(=O)CCCCCCC/C=C\C/C=C\C/C=C\CC [compound 11, DLGG]
IC50 [3]: 1640 nM
